{
  "source": "patent US20040073961A1",
  "about": "“Nematode screening assay” (priority 2002, published 2004)",
  "key": {"wild-type C. elegans [1]": {"system": "wild-type C. elegans", "test": "Population chemotaxis assay for volatile substances, wild-type worms", "assay_type": "in vivo", "procedure": "FIG. 3A: Chemotaxis assays on adult C. elegans to volatile compounds. […] One microliter of odorant and one microliter 1 M sodium azide were added at zone 1, and one microliter of control solvent and one microliter 1 M sodium azide were added at zone 6.\n(§1) (Bargmann, C. I., Hartwieg, E., and Horvitz, H. R. (1993) Cell 74, 515-527). One microliter of odorant and one microliter 1 M sodium azide were added at one end of the dish (zone 1), and one microliter of solvent (ethanol) and one microliter 1 M sodium azide were added at the opposite end (zone 6) as a control. Sodium azide was included to anaesthetize animals entering zones 1 and 6.\n(§2) Where reported, worms were exposed to a 1:100 dilution of diacetyl, undiluted benzaldehyde, undiluted octanal and 1:5, 1:10, 1:15, 1:25, 1:50, 1:100, and 1:1000 dilutions of octanal (Sigma Chemical Co., St. Louis, Mo.). Population assay data for N2 and transgenic worm lines were compared using the two-tailed t test."}, "rat I7 OR [2]": {"biological_target": "T1, rat I7 OR (Rattus norvegicus, UniProt P23270)", "T1 sequence (P23270 1-327)": "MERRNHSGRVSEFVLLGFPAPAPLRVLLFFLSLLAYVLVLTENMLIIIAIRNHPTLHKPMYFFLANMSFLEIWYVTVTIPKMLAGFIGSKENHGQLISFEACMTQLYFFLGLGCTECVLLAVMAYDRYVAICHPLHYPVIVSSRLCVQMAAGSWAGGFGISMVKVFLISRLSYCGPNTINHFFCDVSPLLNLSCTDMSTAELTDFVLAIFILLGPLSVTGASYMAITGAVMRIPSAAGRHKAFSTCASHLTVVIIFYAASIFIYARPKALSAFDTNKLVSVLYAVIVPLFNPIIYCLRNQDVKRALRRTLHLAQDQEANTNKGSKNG", "settings": "from the literature (Zhao 1998; Araneda 2000); cited from earlier work"}, "rat I7 OR [3]": {"biological_target": "T1, rat I7 OR", "test": "Population chemotaxis assay for volatile substances, Str-1::I7 transgenic worms (I7 expressed in AWB neurons)", "assay_type": "in vivo, C. elegans", "set-up": "expressed in transfected cells; host or cells: transgenic C. elegans; AWB neurons (str-1 promoter) or AWA neurons (odr-10 promoter)", "procedure": "as §1, §2\nTo investigate the possibility to functionally express mammalian ORs in C. elegans, wild-type nematodes were first characterized for their ability to detect and respond to increasing dilutions of volatile chemicals and particularly to octanal, an agonist for the rat I7 OR (FIG. 4B; Zhao, H., Ivic, L., Otaki J. M., Hashimoto, M., Mikoshiba, K., and Firestein, S. (1998) Science 279, […]; Araneda, R. C., Kini, A. D., and Firestein, S. (2000) Nature Neurosci. 12, 1248-1255). […] Higher dilutions of octanal gave chemotaxis indexes close to 0 indicating a neutral response of the wild-type worms to lower concentrations of the odorant. […] As AWB neurons mediate volatile avoidance in C. elegans, it was expected that the expression of the rat I7 OR in AWB neurons and its activation with a 1:10 dilution of octanal would counteract the olfactory attraction to 1:10 octanal observed in wild-type worms. I7 transgenic worms were generated, in which I7 expression was driven by the str-1 promoter, a controlling element exclusively functional in the two AWB neurons (Troemel, E. R., Kimmel, B. E., and Bargmann, C. I. (1997) Cell 91, 161-169). Five independently derived C. elegans transgenic strains expressing I7 were tested (FIG. 5). […]"}, "rat I7 OR [4]": {"biological_target": "T1, rat I7 OR", "test": "Population chemotaxis assay for volatile substances, Odr-10::I7 transgenic worms (I7 expressed in AWA neurons)", "assay_type": "in vivo, C. elegans", "set-up": "expressed in transfected cells; host or cells: transgenic C. elegans; AWB neurons (str-1 promoter) or AWA neurons (odr-10 promoter)", "procedure": "as §1, §2\nAWA neurons mediate chemotaxis to volatile attractants in C. elegans. […] It was expected that the activation of I7 with undiluted octanal in these transgenic worms would counteract the volatile avoidance to undiluted octanal observed in wild-type worms. Chemotaxis assays were performed with four independently derived C. elegans transgenic strains expressing I7 (FIG. 6). […] While most of the wildtype C. elegans were repelled toward zone 6, a significant number of odr-10::I7 transgenic worms was found in the proximity to the odorant source (FIGS. 6B and 3A). In order to investigate the specificity of the decrease in the aversive response of Odr10::I7 transgenic worms to undiluted octanal and to confirm that this decrease was due to the interaction of octanal with I7, chemotaxis assays with Odr-10::I7 transgenic worms were performed in which diacetyl and benzaldehyde were used."}, "wild-type C. elegans [5]": {"system": "wild-type C. elegans", "settings": "known from the literature, cited from earlier work"}, "[6]": {"settings": "specificity controls: 1:100 dilution of diacetyl, pure benzaldehyde, Str-1::I7 transgenic worms"}, "[7]": {"settings": "specificity controls: diacetyl and benzaldehyde, Odr-10::I7 transgenic worms"}},
  "note": "Read-outs that look alike come from different tables or passages of the source.",
  "data": [
    {"smiles": "CCCCCCCC=O", "note": "[octanal]", "values": [
      {"measurement": "chemotaxis index", "setting": "wild-type C. elegans [1]; 1:10 dilution of octanal, wild-type worms, scored after 1 hour", "result": "+0.5"},
      {"measurement": "chemotaxis index", "setting": "wild-type C. elegans [1]; higher dilutions of octanal than 1:10, wild-type worms, neutral response", "result": "~0"},
      {"measurement": "chemotaxis index", "setting": "wild-type C. elegans [1]; undiluted octanal, 1 microliter, wild-type worms, scored after 1 hour, +1.0 total attraction, −1.0 total repulsion", "result": "−0.6"},
      {"measurement": "activity at the I7 receptor", "setting": "rat I7 OR [2]", "result": "agonist"},
      {"measurement": "change of chemotaxis index in relation to control wild-type worms", "setting": "rat I7 OR [3]; 1:10 octanal, five Str-1::I7 transgenic worm strains, statistically significant", "result": "decreased dramatically"},
      {"measurement": "change of chemotaxis index in relation to control wild-type worms", "setting": "rat I7 OR [4]; undiluted octanal, four Odr-10::I7 transgenic worm strains, statistically significant", "result": "increased dramatically"}
    ]},
    {"smiles": "O=Cc1ccccc1", "note": "[benzaldehyde]", "values": [
      {"measurement": "behavioral response of wild-type C. elegans", "setting": "wild-type C. elegans [5]; pure benzaldehyde", "result": "induce aversion"},
      {"measurement": "activity at the I7 receptor", "setting": "rat I7 OR [2]", "result": "do not activate"},
      {"measurement": "change of chemotaxis index in relation to control wild-type worms", "setting": "rat I7 OR [3]; [6]", "result": "did not change"},
      {"measurement": "change of chemotaxis index in relation to control wild-type worms", "setting": "rat I7 OR [4]; [7]", "result": "did not change"}
    ]},
    {"smiles": "CC(=O)C(C)=O", "note": "[diacetyl]", "values": [
      {"measurement": "behavioral response of wild-type C. elegans", "setting": "wild-type C. elegans [5]; 1:100 dilution of diacetyl", "result": "induce attraction"},
      {"measurement": "change of chemotaxis index in relation to control wild-type worms", "setting": "rat I7 OR [3]; [6]", "result": "did not change"},
      {"measurement": "change of chemotaxis index in relation to control wild-type worms", "setting": "rat I7 OR [4]; [7]", "result": "did not change"}
    ]}
  ]
}
